# Assays:
# [1] = tested on: human hair follicle dermal papilla cells (HFDPC); experiment: Antioxidant test for hair follicle cells (ROS, DCFH-DA, flow cytometry, H2O2 stimulation); type: cell-based; settings: 0.1 mM compound + 0.5 mM H2O2, read-out: ROS inhibition rate relative to control group G02
# Description: 1. Cell strains: human hair follicle dermal papilla cells (HFDPC), which are purchased from PromoCell, with a cell number C-12071, and hereinafter referred to as HFDPC cells.
# 1. HFDPC cells were inoculated into a 6-well culture medium with 2 ml of cell culture medium in each well at the density of 1×10^5 cells, and cultured at 37° C. for 24 h. Therefore, the HFDPC cells were divided into three test groups which were blank group G01, control group G02 and experimental group, respectively.
# 2. After culture for 24 h, each group was changed as an experimental culture medium. Where, the experimental culture media in blank G01 and control group G02 were cell culture mediums without cashew testa extracts or compounds thereof. Subsequently, each group was treated at 34° C. for 1 h.
# 3. After treatment for 1 h, a DCFH-DA treatment reagent was added in each group so that the final concentration of each group was 5 μg/mL, and each group was treated at 37° C. for 15 min.
# 4. After treatment for 15 min, 100 mM of 5 μl/well H2O2 aqueous solution was added, and each group was treated at 34° C. for 0.5 h.
# 5. The treated experimental culture medium in each group was removed, and washed 2 times with 1× DPBS.
# 6. After washing, 500 μl of trypsin was added into each well for 5 min of photophobic reaction. After the reaction, the cell culture medium was added to terminate the reaction. After that, suspended cells and cell culture media in each well were collected into corresponding 1.5 ml micro-centrifuge tubes, and centrifuged for 5 min at 400×g to make cells in each centrifuge tube participated.
# 7. Supernatant in a centrifuge test tube for each group was removed, and the precipitate cells were washed with 1× DPBS once, and then centrifuged for 5 min at 400×g.
# The supernatant in a centrifuge test tube for each group was removed again, and 200 μl of 1× DPBS was added into the centrifuge test tube for each group to resuspend the cells so as to form a cell suspension.
# 8. The excitation light parameter of flow cytometry was set as 450-490 nm, the scattered light parameter of flow cytometry was set as 510-550, and then the fluorescence signal of DCFH-DA in each group was detected by flow cytometry. After entering the HFDPC cells, DCFH-DA was […] into DCFH (dichlorodihydrofluorescein) and then oxidized into DCF (dichlorofluorescein) capable of emitting green fluorescence by reactive oxygen species (ROS), the fluorescence intensity of the HFDPC cells treated by DCFH-DA can reflect the content of ROS in […], so as to obtain the proportion of highly expressed ROS cells in FDPC cells accounting for the number of original cells.
# The relative ROS generation amounts of all groups are calculated according to the following formula: ROS relative generation amount (%)=(green fluorescence signal in each group/green fluorescence signal in blank group G01)×100%.
# Since the experiment was repeated for three times, the measurement results of experiment that was repeated for three times were averaged as an average value, and then statistically significant differences between rest results of control group G02 and other groups were obtained by student's t-test statistical analysis. In the figures, “*” represents that compared with control group G02, p is less than 0.05, “**” represents that compared with control group G02, p is less than 0.01, and “***” represents that compared with control group G02, p is less than 0.001.
# Refer to FIG. 10. The cells in blank group G01 were neither treated with the cashew testa extract, nor stimulated by adding H2O2, and therefore the test results in blank group G01 represent the expression of cells under the condition of normal physiological metabolism, and the relative ROS generation amount of each group is as shown in FIG. 10. […]
# HFDPC cells = experiment: Test for promoting hair follicle cell proliferation (EdU, flow cytometry); type: cell-based, human; settings: 0.1 mM compound, 24 h; for relative hair follicle cell proliferation rate: blank group G01 = 100%
# Description: 1. Assay kit: cell proliferation assay kit (Click-iT™ Plus EdU Flow Cytometry Assay Kits-Alexa Fluor™ 488 picolyl azide, 50 tests), which is purchased from Invitrogen, with a product number C10632.
# 1. HFDPC cells were inoculated into a 6-well culture medium at the density of 1×10^5 cells/well, and cultured under the conditions of 5% CO2 and 37° C. until 80%-90% of cell fullness were achieved.
# 2. After culture for 24 h, the content of DNA in each group was measured by using cell proliferation assay kit. Therefore, cells in each group were treated according to test procedures provided by the cell proliferation assay kit, then the excitation light parameter of flow cytometer was set as 450-490 nm, and the scattered light parameter of flow cytometer was set as 510-550 nm, and then EdU (5-ethynyl-2′-deoxyuridine) fluorescent signal of each group was detected by flow cytometer.
# The proliferation rate of hair follicle cells in each group was based on the content of DNA in each group. The relative hair follicle cell proliferation rates of all groups are calculated according to the following formula: relative hair follicle cell proliferation rate (%)-(fluorescent signal of each group/fluorescent signal of blank group G01)×100%.
# The statistically significant difference between test results of blank group G01 and other groups was obtained by student's t-test statistical analysis. In the figures, “*” represents that compared with blank group G01, p is less than 0.05, “**” represents that compared with blank group G01, p is less than 0.01, and “***” represents that compared with blank group G01, p is less than 0.001.
SMILES,inhibition at 100 µM [1] [%],increase of relative hair follicle cell proliferation rate relative to blank group G01 (HFDPC cells),proliferation effect compared with control group G02 (20% fetal bovine serum) (HFDPC cells),relative hair follicle cell proliferation rate (HFDPC cells) [%]
O=C(/C=C/c1ccc(O)cc1)OC[C@H]1O[C@@H](Oc2cc(O)c3c(c2)OC(c2ccc(O)cc2)CC3=O)[C@H](O)[C@@H](O)[C@@H]1O (stereo partly drawn) [Naringenin 7-O-(6″-O-p-coumaryl)-β-D-glucoside],75.8,~25%,superior to that of control group G02,125
"O=C(/C=C/c1ccc(O)cc1)O[C@@H]1Cc2c(O)cc(O)cc2O[C@@H]1c1ccc(O)c(O)c1 [epicatechin coumarin ester, Epicatechin coumarin ester]",100,about 14.1%,,114.1
"O=C(O[C@@H]1Cc2c(O)cc(O)cc2O[C@@H]1c1ccc(O)c(O)c1)c1cc(O)c(O)c(O)c1 [epicatechin gallate, Epicatechin gallate]",96.9,,,89.9
"O=C(O)c1cc(O)c(O)c(O)c1 [gallic acid, Gallic acid]",80,,,83.7
"Oc1cc(O)c2c(c1)O[C@H](c1cc(O)c(O)c(O)c1)[C@@H](O)C2 [gallocatechin, Gallocatechin]",90.8,,,93.5
"Oc1cc(O)cc(O)c1 [phloroglucinol, Phloroglucinol]",53.9,~27.9%,superior to that of control group G02,127.9
"O=C(O)c1ccc(O)c(O)c1 [protocatechuic acid, Protocatechuic acid]",99.4,~9.6%,,109.6

# Source: patent publication US20250000783A1, “METHOD FOR HAIR CARE BY USING CASHEW TESTA EXTRACT” (TCI CO., LTD., priority 2023, published 2025)
